# Experimental data reported in patent publication US20250108038A1 (priority 2023, published 2025).
# Values joined by “and” are separate entries in the source; they are usually repeats but may differ in a detail not shown here. Identical values can stand only once.
# System: Long Evans rats
# Assay: Behavioral satiety sequence (BSS)
# Type: in vivo, Long Evans rat
# Source text: The Behavioural Satiety Sequence (BSS) is a technique used to evaluate physiological satiety. It is based on the expression of a sequence of behaviors including eating, grooming, locomotor activity, followed by resting, which are typically observed in rodents post-ingestion (Halford et al, 1998, Pharmacology Biochemistry and Behaviour. 61(2): 159-168). The BSS is a widely used model for determining the effects of novel pharmaceuticals on food intake and measures of satiety in rodents (Oliveira et al, 2011, Revista de Nutrição. 24(4) 619-628), and to discriminate the cause of reduced food intake following pharmacological manipulation. For example, treatments that may reduce food intake by non-specific mechanisms, such as immobility, malaise, and taste adulteration, will disrupt this sequence (Halford et al, 1998, Pharmacology Biochemistry and Behaviour. 61(2): 159-168).
# Specifically, 12 male Long-Evans rats were food-deprived for 22 h with a 2 h feeding period each day. Rats were trained to consume daily food during the 2 h period over 25 days. The testing phase was initiated once the rats consistently consumed 16-18 g of food per day with ≤10% variance in amount of feed consumed. Feeding took place in designated individual boxes in a quiet room separate from the housing room. Continuous remote monitoring via video camera during feeding was used to assess the BSS. Food consumption was measured by weighing the total available food before and after the 2 h feeding window, correcting for spillage. Lorcaserin (1 mg/kg) was included as a reference control (Higgins et al, 2011, Neuropsychopharmacology. 37(5): 1177-1191). Subjects were tested using a repeated-measures, Latin square design with 2-3 days wash-out between treatment cycles.
# On scheduled test days, animals were monitored remotely via video camera during the feeding access period. The occurrence of four mutually exclusive behaviors (eating/drinking, grooming, active, rest) were individually scored. Over the 2 h feeding period, behaviors were assessed every 30 seconds. Scores were compiled into 23 5 min timebins (timebin 24 was removed due to early removal of animals) and the frequency of each behavior within each timebin was calculated to determine a temporal frequency of each measure (Rodgers et al, 2010, Pharmacology Biochemistry and Behaviour. 97: 3-14). Percentage time was plotted for each behavioral sequence in each timebin to compare between treatment groups (Higgins et al, 2011, Neuropsychopharmacology. 37(5): 1177-1191).
# [1] = 3 mg/kg, raw data per animal (LT-1 to LT-12)
# [2] = Compound I-19 0.1 mg/kg, AVG of animals LT-1 to LT-12
# [3] = Compound I-19 0.1 mg/kg, AVG of animals LT-1 to LT-12, 0-0.5 hours
compound,measurement,setting,value
Clc1ccc(C2(OCC3OCCO3)c3ccccc3C3=NCCN32)cc1 (stereo not drawn) [Compound I-19],"BSS scoring E (eating/drinking), Time Bin 19 (90-95 TOTAL), AVG","3 mg/kg, AVG of LT-1 to LT-12",0.59
same,"BSS scoring E (eating/drinking), Time Bin 20 (95-100 TOTAL), AVG","3 mg/kg, AVG of LT-1 to LT-12",0.62
same,"BSS scoring E (eating/drinking), Time Bin 21 (100-105 TOTAL), AVG","3 mg/kg, AVG of LT-1 to LT-12",0.56
same,"BSS scoring E (eating/drinking), Time Bin 22 (105-110 TOTAL), AVG","3 mg/kg, AVG of LT-1 to LT-12",0.52
same,"BSS scoring E (eating/drinking), Time Bin 23 (110-115 TOTAL), AVG","3 mg/kg, AVG of LT-1 to LT-12",0.58
same,"BSS scoring E (eating/drinking), Time Bin 24 (115-120 TOTAL), AVG","3 mg/kg, AVG of LT-1 to LT-12",0.37
same,"BSS scoring G (grooming), Time Bin 19 (90-95 TOTAL), AVG","3 mg/kg, AVG of LT-1 to LT-12",0.05
same,"BSS scoring G (grooming), Time Bin 20 (95-100 TOTAL), AVG","3 mg/kg, AVG of LT-1 to LT-12",0.04
same,"BSS scoring G (grooming), Time Bin 21 (100-105 TOTAL), AVG","3 mg/kg, AVG of LT-1 to LT-12",0.06
same,"BSS scoring G (grooming), Time Bin 22 (105-110 TOTAL), AVG","3 mg/kg, AVG of LT-1 to LT-12",0.07
same,"BSS scoring G (grooming), Time Bin 23 (110-115 TOTAL), AVG","3 mg/kg, AVG of LT-1 to LT-12",0.02
same,"BSS scoring G (grooming), Time Bin 24 (115-120 TOTAL), AVG","3 mg/kg, AVG of LT-1 to LT-12",0.02
same,"BSS scoring R (resting), Time Bin 19 (90-95 TOTAL), AVG","3 mg/kg, AVG of LT-1 to LT-12",0.18
same,"BSS scoring R (resting), Time Bin 20 (95-100 TOTAL), AVG","3 mg/kg, AVG of LT-1 to LT-12",0.15
same,"BSS scoring R (resting), Time Bin 21 (100-105 TOTAL), AVG","3 mg/kg, AVG of LT-1 to LT-12",0.16
same,"BSS scoring R (resting), Time Bin 22 (105-110 TOTAL), AVG","3 mg/kg, AVG of LT-1 to LT-12",0.22
same,"BSS scoring R (resting), Time Bin 23 (110-115 TOTAL), AVG","3 mg/kg, AVG of LT-1 to LT-12",0.22
same,"BSS scoring R (resting), Time Bin 24 (115-120 TOTAL), AVG","3 mg/kg, AVG of LT-1 to LT-12",0.18
same,"BSS scoring A (active), Time Bin 19 (90-95 TOTAL)",[1],0 (3×) and 1 (2×) and 2 (5×) and 4 and 5
same,"BSS scoring A (active), Time Bin 20 (95-100 TOTAL)",[1],5 and 0 (5×) and 3 and 4 (3×) and 1 and 2
same,"BSS scoring A (active), Time Bin 21 (100-105 TOTAL)",[1],7 and 0 (6×) and 1 and 5 (3×) and 3
same,"BSS scoring A (active), Time Bin 22 (105-110 TOTAL)",[1],0 (5×) and 1 and 3 (2×) and 5 and 2 (2×) and 8
same,"BSS scoring A (active), Time Bin 23 (110-115 TOTAL)",[1],0 (6×) and 3 (2×) and 5 (2×) and 1 and 6
same,"BSS scoring A (active), Time Bin 24 (115-120 TOTAL)",[1],3 and 0 (3×) and 2 (3×) and 7 (2×) and 1 and 4 (2×)
same,"BSS scoring E (eating/drinking), Time Bin 19 (90-95 TOTAL)",[1],7 (2×) and 8 (2×) and 9 and 6 and 0 and 1 and 5 (3×) and 10
same,"BSS scoring E (eating/drinking), Time Bin 20 (95-100 TOTAL)",[1],4 (3×) and 10 and 5 and 8 (2×) and 9 (2×) and 0 and 7 and 6
same,"BSS scoring E (eating/drinking), Time Bin 21 (100-105 TOTAL)",[1],3 and 10 (2×) and 9 (3×) and 7 (2×) and 0 (2×) and 1 and 2
same,"BSS scoring E (eating/drinking), Time Bin 22 (105-110 TOTAL)",[1],8 and 5 and 7 (3×) and 9 (2×) and 0 (2×) and 3 (2×) and 4
same,"BSS scoring E (eating/drinking), Time Bin 23 (110-115 TOTAL)",[1],10 (3×) and 6 and 0 (2×) and 8 (2×) and 4 and 3 and 5 (2×)
same,"BSS scoring E (eating/drinking), Time Bin 24 (115-120 TOTAL)",[1],6 and 0 (3×) and 8 and 4 (2×) and 7 and 2 (2×) and 1 and 10
same,"BSS scoring G (grooming), Time Bin 19 (90-95 TOTAL)",[1],0 (8×) and 2 (2×) and 1 (2×)
same,"BSS scoring G (grooming), Time Bin 20 (95-100 TOTAL)",[1],0 (8×) and 1 (3×) and 2
same,"BSS scoring G (grooming), Time Bin 21 (100-105 TOTAL)",[1],0 (8×) and 1 and 2 (3×)
same,"BSS scoring G (grooming), Time Bin 22 (105-110 TOTAL)",[1],0 (8×) and 2 (2×) and 1 and 3
same,"BSS scoring G (grooming), Time Bin 23 (110-115 TOTAL)",[1],0 (10×) and 1 (2×)
same,"BSS scoring G (grooming), Time Bin 24 (115-120 TOTAL)",[1],0 (10×) and 1 (2×)
same,"BSS scoring R (resting), Time Bin 19 (90-95 TOTAL)",[1],3 and 0 (5×) and 2 and 1 (3×) and 8 and 6
same,"BSS scoring R (resting), Time Bin 20 (95-100 TOTAL)",[1],1 (4×) and 0 (4×) and 2 (3×) and 8
same,"BSS scoring R (resting), Time Bin 21 (100-105 TOTAL)",[1],0 (5×) and 3 (2×) and 6 and 1 (3×) and 4
same,"BSS scoring R (resting), Time Bin 22 (105-110 TOTAL)",[1],2 (3×) and 0 (2×) and 1 (5×) and 10 and 5
same,"BSS scoring R (resting), Time Bin 23 (110-115 TOTAL)",[1],0 (5×) and 10 and 1 (2×) and 5 (2×) and 2 (2×)
same,"BSS scoring R (resting), Time Bin 24 (115-120 TOTAL)",[1],1 (3×) and 0 (4×) and 2 (2×) and 4 (2×) and 7
same,"BSS scoring A (active), Time Bin 19 (90-95 TOTAL), AVG",[2],0.30
same,"BSS scoring A (active), Time Bin 20 (95-100 TOTAL), AVG",[2],0.13
same,"BSS scoring A (active), Time Bin 21 (100-105 TOTAL), AVG",[2],0.08
same,"BSS scoring A (active), Time Bin 22 (105-110 TOTAL), AVG",[2],0.13
same,"BSS scoring A (active), Time Bin 23 (110-115 TOTAL), AVG",[2],0.21
same,"BSS scoring A (active), Time Bin 24 (115-120 TOTAL), AVG",[2],0.16
same,"BSS scoring E (eating/drinking), Time Bin 19 (90-95 TOTAL), AVG",[2],0.52
same,"BSS scoring E (eating/drinking), Time Bin 20 (95-100 TOTAL), AVG",[2],0.68
same,"BSS scoring E (eating/drinking), Time Bin 21 (100-105 TOTAL), AVG",[2],0.73
same,"BSS scoring E (eating/drinking), Time Bin 22 (105-110 TOTAL), AVG",[2],0.68
same,"BSS scoring E (eating/drinking), Time Bin 23 (110-115 TOTAL), AVG",[2],0.64
same,"BSS scoring E (eating/drinking), Time Bin 24 (115-120 TOTAL), AVG",[2],0.52
same,"BSS scoring G (grooming), Time Bin 19 (90-95 TOTAL), AVG",[2],0.03
same,"BSS scoring G (grooming), Time Bin 20 (95-100 TOTAL), AVG",[2],0.05
same,"BSS scoring G (grooming), Time Bin 21 (100-105 TOTAL), AVG",[2],0.04
same,"BSS scoring G (grooming), Time Bin 22 (105-110 TOTAL), AVG",[2],0.04
same,"BSS scoring G (grooming), Time Bin 23 (110-115 TOTAL), AVG",[2],0.03
same,"BSS scoring G (grooming), Time Bin 24 (115-120 TOTAL), AVG",[2],0.03
same,"BSS scoring R (resting), Time Bin 19 (90-95 TOTAL), AVG",[2],0.15
same,"BSS scoring R (resting), Time Bin 20 (95-100 TOTAL), AVG",[2],0.14
same,"BSS scoring R (resting), Time Bin 21 (100-105 TOTAL), AVG",[2],0.15
same,"BSS scoring R (resting), Time Bin 22 (105-110 TOTAL), AVG",[2],0.15
same,"BSS scoring R (resting), Time Bin 23 (110-115 TOTAL), AVG",[2],0.12
same,"BSS scoring R (resting), Time Bin 24 (115-120 TOTAL), AVG",[2],0.13
same,"BSS scoring A (active), Time Bin 1 (0-5 TOTAL), AVG",[3],0.09
same,"BSS scoring A (active), Time Bin 2 (5-10 TOTAL), AVG",[3],0.04
same,"BSS scoring A (active), Time Bin 3 (10-15 TOTAL), AVG",[3],0.03
same,"BSS scoring A (active), Time Bin 4 (15-20 TOTAL), AVG",[3],0.09
same,"BSS scoring A (active), Time Bin 5 (20-25 TOTAL), AVG",[3],0.08
same,"BSS scoring A (active), Time Bin 6 (25-30 TOTAL), AVG",[3],0.13
same,"BSS scoring E (eating/drinking), Time Bin 1 (0-5 TOTAL), AVG",[3],0.89
same,"BSS scoring E (eating/drinking), Time Bin 2 (5-10 TOTAL), AVG",[3],0.96
same,"BSS scoring E (eating/drinking), Time Bin 3 (10-15 TOTAL), AVG",[3],0.95
